What was measured:
[1] = tested on: pRb, IRF4; assay: Western blot of cell cycle regulators in H929 cells; format: cell-based
[2] = tested on: T cells; assay: Anti-CD3-stimulated human T cell assay, cytokine production; format: cell-based
Experimental: T cells were isolated from buffy coat by negative selection using the RosetteSep® T Cell Enrichment Cocktail. The manufacturer's procedures were followed accordingly. All 96-well plates were pre-coated with 3 μg/ml anti-human CD3 antibody in 100 μl 1×PBS for 4 hours at 37° C. The plates were washed three times with RPMI-1640 Complete Media prior to the T cell assay. T cells were then plated in CD3 pre-coated plates at a density of 2.5×10^5 cells/well in 180 μl RPMI-1640 Complete Media. The cells were treated with 20 μl 10× titrated compounds at 10, 1, 0.1, 0.01, 0.001, 0.0001 and 0.00001 μM. Final DMSO concentrations were 0.25%. The plates were incubated for 48 hours at 37° C., 5% CO2. After 48 hours, the supernatants were harvested and tested by a multi-plex cytometric bead array (CBA) assay for the following cytokines/chemokines: IL-2, IL-3, IL-5, IL-10, IL-13, IL-15, IL-17a, GM-CSF, G-SCF, IFN-γ, TNF-α and RANTES. The CBA plates were analyzed on the Luminex IS100 instrument. […] All 96-well plates were pre-coated with 3 μg/mL anti-human CD3 antibody in 100 μL 1×PBS for 4 hours at 37° C. The plates were washed 3 times with RPMI-1640 Complete Media prior to the T cell assay. The T cells were then plated in anti-CD3-pre-coated plates at a density of 2.5×10^5 cells/well in 180 μL RPMI-1640 Complete Media. The cells were treated with 20 μL 10× titrated Celgene compounds at 10, 1, 0.1, 0.01, 0.001, 0.0001, and 0.00001 μM in duplicate. The final DMSO concentrations were 0.25%. The plates were incubated for 48 hours at 37° C., 5% CO2. After 48 hours, the supernatants were harvested and tested by a multiplex cytometric bead array (CBA) assay for the following cytokines/chemokines: IL-2, IL-3, IL-5, IL-10, IL-13, IL-15, IL-17A, GM-CSF, G-CSF, IFN-γ, TNF-α, and RANTES. The CBA plates were analyzed on the Luminex IS100 instrument.

Question: For `Cc1nc2cccc(N)c2c(=O)n1C1CCC(=O)NC1=O` (centres unmarked) [compound of Formula I, 3-(5-amino-2-methyl-4-oxo-4H-quinazolin-3-yl)-piperidine-2,6-dione], which “phosphorylation of pRB” value [1] is on record?
Answer: decreased

Question: And the “total level of protein IRF4” value [1]?
Answer: decreased

Question: And the IL-5 production increase ([2]; 0.01 μM)?
Answer: 3 fold

Question: And the IL-5 production increase ([2]; 0.1 μM)?
Answer: 4 fold

Question: What about the “production of IL-2, IL-3, IL-5, IL-10, IL-15, GM-CSF, INF-γ, RANTES, and TNF-α” value ([2]; 0.01 to 10 μM) of the same compound?
Answer: enhanced

Question: What about the IL-10 production ([2]; 1 and 10 μM) of the same compound?
Answer: inhibited

Question: What about the EC50 ([2]; Homo sapiens, T-cell, read-out: T cell IL-2 EC50) of the same compound?
Answer: 12 to 14 nM

Question: What about the IL-10 production enhancement ([2]; low concentrations (≦0.01 μM)) of the same compound?
Answer: 2 fold

From patent US20180055844A1 (Celgene Corporation, priority 2011, published 2018)
